In patent publication US5877147A, “Compounds for medicinal use” (Peptech (UK) Limited, priority 1993, dated 1999):

Experiments:
[1] = tested on: lung and peritoneal macrophages; settings: orally administered, non-liposome encapsulated; cited from earlier work
melanoma metastases = settings: orally administered, non-liposome encapsulated; cited from earlier work
IgA = IgA levels in treated patients (mucosal immunity); format: in vivo, human; settings: in words
[2] = tested on: Human Papilloma Virus (HPV) infection of the uterine cervix
Protocol: (§1) The study group consisted of 50 women between 20 and 30 years of age (mean 26.7) with HPV of the cervix. The duration of the disease varied from 1 to 3.5 years. […] To control for variation in Ig content of cervical secretions during the menstrual cycle, treatment was commenced 8-10 days after the beginning of the period.
(§2) Follow up studies on the clinical progression of the HPV infection were performed

[3] = tested on: Ig in saliva and genital tract secretions; settings: 3 days after 1 mg GMDP orally x 10 days
Text: as §1
(§3) A number of immunological parameters were monitored before the beginning of treatment; immunoglobulin (Ig) in serum (radial immunodiffusion), Ig in saliva and genital tract secretions (ELISA), subpopulations of immune cells (immunocytofluorimetry).
as §2
(§4) Control values for immunological parameters were also taken from a group of women free of HPV infection. Their age range was 20 to 30 years with a mean of 25.6.

[4] = tested on: immunoglobulin (Ig) in serum; settings: 3 days after 1 mg GMDP orally x 10 days
Text: as §1, §3, §2, §4

[5] = tested on: subpopulations of immune cells; settings: blood, 3 days after 1 mg GMDP orally x 10 days
Text: as §1, §3, §2, §4

mice = settings: cited from earlier work
[6] = that of MDP = 100%; cited from earlier work

CCCCCCCCCCCCCCCC(=O)OC[C@H](COP(=O)([O-])OCCNC(=O)[C@H](C)NC(=O)CC[C@@H](NC(=O)[C@H](C)NC(=O)[C@@H](C)O[C@H]1[C@H](O)[C@@H](CO)OC(O)[C@@H]1NC(C)=O)C(N)=O)OC(=O)CCCCCCCCCCCCCCC.O.[Na+] (stereo partly drawn) [MTP-PE, N-acetyl-muramyl-L-alanyl-D-isoglutaminyl-L-alanyl-2-(1',2'-dipalmitoyl-sn-glycero-3'-hydroxy-phosphoryloxy)ethylamide, monosodium]
tumouricidal activity in lung and peritoneal macrophages [1]: produced tumouricidal activity | eradicating well established melanoma metastases (melanoma metastases): not effective | inhibiting lung and lymph node metastasis (melanoma metastases): effective

N-acetyl-D-glucosaminyl-(β1-4)-N-acetylmuramyl-L-alanyl-D-glutamic acid [GMDP-A]
levels of IgA in treated patients (IgA): especially high

CC(=O)NC1C(OC2C(CO)OC(O)C(NC(C)=O)C2OC(C)C(=O)NC(C)C(=O)NC(CCC(=O)O)C(N)=O)OC(CO)C(O)C1O [GMDP, N-acetyl-D-glucosaminyl-(β1-4)-N-acetylmuramyl-L-alanyl-D-isoglutamine]
Recurrence of HPV, number of patients ([2]; 30 in group, 1 mg GMDP orally daily for 10 days, adjunct therapy, placebo 7 of 20): 3 | Recurrence of HPV, % of group ([2]; 30 in group, 1 mg GMDP orally daily for 10 days, adjunct therapy, placebo 35%): 10% | Full Cure, number of patients ([2]; 30 in group, 1 mg GMDP orally daily for 10 days, adjunct to antibiotics, laser and cryotherapy, placebo 13 of 20): 27 | Full Cure, % of group ([2]; 30 in group, 1 mg GMDP orally daily for 10 days, adjunct to laser and cryotherapy, placebo 65%): 90% | rate of cure versus placebo group ([2]; GMDP as adjunct to laser and cryotherapy, in words): increase in the rate of cure | Mucus of uterine cervix IgD, after treatment ([3]; before 0.326 ± 0.16, spread 0.17): 0.315 mg/dL | Saliva IgM, after treatment ([3]; before 3.17 ± 1.05, spread 1.11): 1.65 mg/dL | Mucus of uterine cervix IgM, after treatment ([3]; before 3.18 ± 2.21, spread 1.65): 1.8 mg/dL | Mucus of uterine cervix IgG, after treatment ([3]; before 9.57 ± 2.19, spread 3.01): 12.01 mg/dL | Saliva IgA, after treatment ([3]; before 11.45 ± 3.48, spread 2.98): 13.16 mg/dL | Saliva IgG, after treatment ([3]; before 16.19 ± 4.01, spread 4.88): 15.05 mg/dL | Saliva sIgA, after treatment ([3]; before 26.53 ± 5.23, spread 4.96): 25.46 mg/dL | Serum IgM, after treatment ([4]; before 123.8 ± 10.4, spread 11.2, p<0.01 vs before): 160.8 mg/dL | Serum IgA, after treatment ([4]; before 216.0 ± 16.8, spread 18.2): 228.7 mg/dL | Serum IgG, after treatment ([4]; before 1424 ± 48, spread 51, p<0.01 vs before): 1258 mg/dL | B-cells %, after treatment ([5]; before 5.30 ± 0.8, spread 1.07): 5.08% | CD16 +ve %, after treatment ([5]; before 16.3 ± 2.1, spread 2.3): 13.1% | CD8 +ve %, after treatment ([5]; before 24.2 ± 2.87, spread 3.17): 20.3% | Lymphocytes %, after treatment ([5]; before 34.11 ± 3.16, spread 2.68): 35.77% | CD4 +ve %, after treatment ([5]; before 34.6 ± 3.1, spread 3.8): 41.8% | CD3 ve %, after treatment ([5]; before 55.8 ± 4.1, spread 3.6): 59.12% | B-cells absolute, after treatment ([5]; before 80.1 ± 12.1, spread 21.7): 103.8 | CD16 +ve absolute, after treatment ([5]; before 246.3 ± 31.7, spread 47.1): 268.1 | CD8 +ve absolute, after treatment ([5]; before 365.7 ± 43.4, spread 64.9): 415.3 | levels of IgA in treated patients (IgA): especially high | LD50 (acute toxicity) (mice): 7000 mg/kg | pyrogenicity relative to MDP [6]: about 50%
